Source: PubChem BioAssay (NCI)
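Compound exposure: 48 hours, 5 concentrations, 96-well plates. TGI denotes the concentration required for complete inhibition of growth.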 Where a SMILES comes first, the peptide text is derived from it. [ ]: non-standard residue; d: D form. β3hI = CC[CH](C)[CH](N)CC(=O)O

Tests used:
Experiment in all cases: DTP human tumour cell line panel, 48 h
[1] = test system: BT-549 breast
[2] = test system: SNB-75 CNS
[3] = test system: OVCAR-5 ovarian
[4] = test system: KM12 colon
[5] = test system: HT29 colon
[6] = test system: EKVX NSCLC
[7] = test system: SK-MEL-5 melanoma
[8] = test system: NCI/ADR-RES ovarian
[9] = test system: HL-60(TB) leukemia
[10] = test system: SNB-19 CNS
[11] = test system: SK-MEL-2 melanoma
[12] = test system: CAKI-1 renal
[13] = test system: MOLT-4 leukemia
[14] = test system: SK-MEL-28 melanoma
[15] = test system: 786-0 renal
[16] = test system: SK-OV-3 ovarian

Structure (SMILES) | TGI [1] | TGI [2] | TGI [3] | TGI [4] | TGI [5] | TGI [6] | TGI [7] | TGI [8] | TGI [9] | TGI [10] | TGI [11] | TGI [12] | TGI [13] | TGI [14] | TGI [15] | TGI [16]
COc1ccccc1Cn1nc(OC)c2cc([N+](=O)[O-])ccc21 | 46.2 µM | 18.7 µM | > 100 µM | > 100 µM | > 100 µM | > 73.6 µM | > 100 µM | > 100 µM | > 100 µM | 41.5 µM | > 57.5 µM | > 53.6 µM | > 100 µM | > 100 µM | > 84.7 µM | –
CCC(C)C(CC(=O)N1CCCC1C(=O)NC(C(=O)NC(C(=O)NCC(=O)NC(CC(N)=O)C(=O)NC(C(=O)NC(C(=O)NC(CCCCN)C(N)=O)C(C)CC)C(C)CC)C(C)C)C(C)CC)NC(=O)C(N)C(C)CC (stereo not drawn) (H-I[β3hI]PIVGNIIK-NH2; configuration not given here) | > 50 µM | – | > 50 µM | > 50 µM | > 50 µM | > 50 µM | > 50 µM | > 50 µM | > 50 µM | > 50 µM | > 50 µM | > 50 µM | > 50 µM | > 50 µM | > 50 µM | > 50 µM
C=C1c2nc3ccccc3n2C=C(c2ccccc2)N1c1ccccc1 | 98.5 µM | > 100 µM | > 100 µM | 59.8 µM | – | > 100 µM | 83.3 µM | > 100 µM | > 100 µM | > 100 µM | > 100 µM | > 100 µM | > 100 µM | – | > 100 µM | > 100 µM
N#CCCN(CCC#N)c1ccc(/C=C2\N=C(c3ccccc3)N(c3ccccn3)C2=O)cc1 | > 100 µM | – | > 100 µM | > 100 µM | > 100 µM | > 100 µM | > 100 µM | > 100 µM | > 100 µM | > 100 µM | > 100 µM | > 100 µM | > 100 µM | > 100 µM | > 100 µM | > 100 µM
COc1cccc(N2C(=O)CSC2c2cc(OC)c(OC)c(OC)c2)c1 (configuration not stated) | 64.6 µM | – | > 100 µM | > 100 µM | > 100 µM | > 100 µM | > 100 µM | 91.4 µM | 98 µM | 63 µM | > 100 µM | > 100 µM | > 100 µM | > 100 µM | > 100 µM | > 100 µM
O=C(/C=C/c1ccco1)CC(=O)/C=C/c1ccco1 | 55.4 µM | > 31.6 µM | 23.3 µM | > 55.2 µM | – | > 31.6 µM | 18.1 µM | 21.7 µM | 11.7 µM | 31.4 µM | 22.2 µM | 26.2 µM | 23 µM | 17.5 µM | 19.2 µM | –
CCOC(=O)CCC(NC(=O)Cc1ccc(Oc2nc3ccccc3nc2-c2cccs2)cc1)C(=O)OCC (configuration not stated) | > 100 µM | – | > 100 µM | > 100 µM | > 100 µM | > 100 µM | > 100 µM | > 100 µM | > 100 µM | 37.2 µM | > 100 µM | > 100 µM | > 100 µM | > 100 µM | 15.3 µM | –
O=[N+]([O-])c1cc(-[n+]2cc([O-])on2)ccc1F | 31.3 µM | 27 µM | 31.2 µM | 31.5 µM | 33.3 µM | 34.8 µM | 28.4 µM | 52 µM | 49 µM | 21.3 µM | 31 µM | 4.2 µM | – | 29.8 µM | 24 µM | 35.8 µM
CCOC(=O)C1=c2[nH]c3cccc4cccc(c43)n2C=C(C(C)=O)C1CC(C)=O (configuration not stated) | > 100 µM | > 100 µM | > 100 µM | > 100 µM | – | > 100 µM | > 100 µM | > 100 µM | 59.2 µM | > 100 µM | > 100 µM | > 100 µM | > 100 µM | > 100 µM | > 100 µM | > 100 µM
CCOC(=O)c1[nH]c2ccccc2c1C(=O)C[C@H](NC(=O)C(F)(F)F)C(=O)OC | > 100 µM | > 100 µM | > 100 µM | > 100 µM | > 100 µM | > 100 µM | > 100 µM | > 100 µM | > 100 µM | > 100 µM | > 100 µM | > 100 µM | > 100 µM | > 100 µM | > 100 µM | –
O=C(CCc1cccc(O)c1)NCCc1ccc(O)cc1 | > 100 µM | – | > 100 µM | > 100 µM | > 100 µM | > 100 µM | > 100 µM | > 100 µM | > 100 µM | > 100 µM | > 100 µM | > 100 µM | > 100 µM | > 100 µM | > 100 µM | > 100 µM
